Experimental data from patent US20070275935A1, “Estratriene Derivatives” (priority 2003, published 2007).

Experiments:
[1] = tested on: Human airway smooth muscle (HASM) cells; test: Thrombin-induced proliferation of human airway smooth muscle (HASM) cells, cell number after 48 h; assay type: cell-based; conditions: for IC50: Homo sapiens, negative log of the concentration that reduces the thrombin-induced proliferative response by 50%, pIC50 of 4.00 = inactive, read-out: HASM-Thr pIC50 (converted); for HASM- Thr pIC25 / HASM- Thr pIC75: two site model, thrombin-induced proliferation; for HASM- Thr pIC25: first phase (inhibition up to 50%); for HASM- Thr pIC75: second phase (inhibition up to 100%)
Description: Human airway smooth muscle (HASM) cells were cultured from macroscopically normal bronchi (0.5-2 cm diameter) obtained from lung resection or heart-lung transplant specimens provided by the Alfred Hospital (Melbourne) according to methods published in detail previously (Fernandes et al., 1999).
Approximately 0.1 g of smooth muscle was stripped from the wall of the bronchus for each cell culture. Dissected tissue was immersed in Dulbecco's modified Eagle's medium (DMEM) (Flow Laboratories, Scotland), supplemented with 100 U/mL penicillin G (CSL, Australia) and 100 ug/mL streptomycin (CSL, Australia). The tissue was rinsed in phosphate buffered saline (PBS; Oxoid, England) and the airway smooth muscle was chopped into 2 mm^3 pieces and digested for 2 hours in DMEM containing elastase (0.5 mg/mL: Worthington Biochemical, USA) followed by a 12 hour incubation in DMEM containing collagenase (1 mg/mL) (Worthington Biochemical, USA), at 37° C. with agitation.
The resulting cell suspension was centrifuged and washed three times in phosphate buffered saline (PBS). Following the last centrifugation step, the cells were resuspended in 25 mL of DMEM supplemented with L-glutamine (2 mM: Sigma, USA), penicillin G (100 U/mL), streptomycin (100 μg/mL), amphotericin B (2 μg/mL: Wellcome, UK) and heat-inactivated FCS (10% v/v: CSL, Australia) and seeded into 25 cm^2 culture flasks. The primary isolates were incubated for 7 to 14 days to reach confluence.
Cells were harvested weekly by 10 min exposure to trypsin (0.5%: CSL, Australia) and EDTA (1 mM in PBS: BDH, Australia) and passaged at a 1:3 ratio into 75 cm^2 flasks.
The activity of the compounds has been established in cell culture by exploring their effects on mitogen-induced increases in cell number. We investigated the effects of 2MEO and its analogues, 4NO and 4NOM, on the proliferation of HASM cells in response to the proliferative stimulus of either thrombin of basic fibroblast growth factor (bFGF). Cells were seeded onto 6-well plates at a density of 1.5×10^4 cells cm^2, made quiescent by removal of serum-containing media for 24 hours and then stimulated for 48 h with either thrombin (0.3 U/ml) or bFGF (300 pM). The test compounds were pre-incubated with HASM cells for 30 minutes before the addition of thrombin. At the end of the 48 hour incubation period, cells were detached from the culture plate by trypsin (0.5% w/v in PBS containing 1 mM EDTA), incubated for 5 minutes at ambient temperature in PBS containing 0.5% (w/v) trypan blue, washed twice (2% FCS in PBS), isolated by centrifugation (12,000×g, 5 min) and resuspended in 200 μl 2% FCS in PBS for counting in a haemocytometer chamber.
Data are expressed as a percentage of the cell number in vehicle treated wells and are presented as the mean and standard error of the mean.
The potency of the compounds in regulating thrombin-induced proliferation of human airway smooth muscle (HASM) was assessed in cells maintained in culture as described above. The potencies are presented as pIC50 values (Column A of Table 4) denoting the negative log of the concentration that reduces the proliferative response by 50%. […] When the single phase model was determined to be more appropriate, the values of pIC25 and pIC75 were not calculated or shown in the table.

Estrogen Receptor (ER) = target: T1, Estrogen Receptor (ER) (Rattus norvegicus, UniProt P06211); test: Estrogen receptor binding assay, 3H-estradiol displacement from rat uterine cytosol; conditions: 3H-estradiol displacement, cytosolic preparations of rat uterus; pIC50 of 4.00 = inactive; read-out: ER-RLB pIC50 (converted)
T1 construct: using rat uterine cytosol as a source of ER; from tissue; host or cells: rat uterus, cytosol fraction (30000 x g supernatant)
T1 sequence (P06211 1-600): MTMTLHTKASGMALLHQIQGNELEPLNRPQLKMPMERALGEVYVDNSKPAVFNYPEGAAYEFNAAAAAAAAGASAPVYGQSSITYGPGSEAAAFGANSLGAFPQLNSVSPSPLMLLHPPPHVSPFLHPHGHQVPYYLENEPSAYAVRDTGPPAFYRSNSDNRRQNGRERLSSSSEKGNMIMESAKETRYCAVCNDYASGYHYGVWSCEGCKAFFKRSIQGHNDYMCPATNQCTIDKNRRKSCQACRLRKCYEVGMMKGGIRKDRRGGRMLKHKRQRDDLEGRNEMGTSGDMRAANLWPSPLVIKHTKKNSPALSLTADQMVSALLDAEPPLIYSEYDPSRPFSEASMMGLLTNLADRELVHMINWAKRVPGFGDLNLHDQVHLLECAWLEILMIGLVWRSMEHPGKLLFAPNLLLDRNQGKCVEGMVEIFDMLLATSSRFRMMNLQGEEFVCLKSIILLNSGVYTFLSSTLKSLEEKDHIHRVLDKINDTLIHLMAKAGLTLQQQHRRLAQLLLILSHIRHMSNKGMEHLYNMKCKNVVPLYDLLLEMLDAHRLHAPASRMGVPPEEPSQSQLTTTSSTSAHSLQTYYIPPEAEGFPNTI
Description: Uteri (6-10 per batch) were isolated from Brown Norway rats (250-350g), washed free from blood in saline and homogenised in 10 mM Tris buffer (pH 7.4, 1.5 mM EDTA, 10% w/v glycerol, 1 mM phenylmethylsulfonylfluoride) using an Ultra Turrax homogeniser for 3 by 15 s bursts with intervals of 1 min on ice.
Nuclear material and cellular debris were removed by centrifugation at 750×g at 4° C. for 10 min (Sorvall RT7); the cytosol component was prepared by centrifugation at 30000×g for 120 min at 4° C. in a Beckman JM1 centrifuge. The cytosol was diluted to approximately 1 mg/ml protein (rat uterine extract) determined using the Bradford method (Biorad).
Separation of bound from free radioligand was achieved by the addition of 500 μL of dextran-coated charcoal (400 mg dextran clinical grade C and 2g of charcoal, Norit A in 100 mL of Tris buffer) and centrifugation at 4° C. in a Sorval RT7 at 2000×g for 10 min.

[2] = tested on: type II airway epithelial cell line, A549; test: Proliferation of A549 cells in response to 5% FCS; assay type: cell-based, human; conditions: Homo sapiens, A549; proliferation in response to 5% FCS; pIC50 of 4.00 = inactive; read-out: A549 PIC50 (converted)
Description: The effects of 4NO were evaluated in a number of non-smooth muscle cell types including the type II airway epithelial cell line, A549 (ATCC accession number ATCC CCL-185 Lung carcinoma human) (FIG. 2); the human breast tumour cell line, MCF7, (ATTC accession number ATCC HTB-22 breast adenocarcinoma, human) which expresses the estrogen receptor (FIG. 3); and in bovine aortic endothelial cells (BAEC) (FIG. 4).
The effects of test compounds were examined on proliferation of A549 cells in response to 5% fetal calf serum (FCS). Analogues were pre-incubated with A549 cells for 30 min before the addition of FCS. The incubation continued for 48 h before cell enumeration. Data are expressed as a percentage of the cell number in vehicle treated wells and are presented as the mean and standard error of the mean. Similarly the effects of 2MEO and 4NO on proliferation of MCF7 in response to 5% FCS or epidermal growth factor (EGF, 300 pM) were examined, as were the effects of 2MEO and 4NO on proliferation of BAEC in response to 5% FCS. The incubation parameters were the same as described above and results are presented as the mean and standard error of the mean.
This assay was also used to evaluate the ability of other compounds to inhibit the proliferation of non-smooth muscle cells MCF7 and A549 (described above) in response to 5% FCS. The results of this assay are presented in Table 4 (columns G and H respectively). The potency of the compounds was considerably less in inhibiting proliferation of these cell lines than it was for HASM. These observations support the contention that there are cell type-specific targets for the actions of these compounds. Such assays may also be adopted to examine the effect of other disclosed compounds on these cells or on other non-smooth muscle cells of interest.

Pulmonary fibroblasts = test: bFGF-induced proliferation of human pulmonary fibroblasts; assay type: cell-based; conditions: inhibition of bFGF (300 pM)-induced proliferation, mean and SEM, minimum 3 experiments; 1 μM; * not defined
Description: Samples of parenchyma from human lung transplant recipients were dissected away from the pleura, chopped into fragments of less than 1 mm^2 and allowed to adhere to plastic culture dishes in a minimal volume of DMEM containing serum (10%) and antibiotics (as used for HASM culture). After the tissue fragments had adhered to the base of the dish additional medium was added. Medium was changed twice weekly until an explant culture formed, at which time the tissue fragments were removed and the cells were passaged in a 1:3 split ratio by exposure to trypsin weekly to produce pulmonary fibroblast cultures.
Pulmonary fibroblasts were cultured in DMEM, serum-deprived for 24 h, in the presence or absence of the test compounds, and then stimulated with 300 pM bFGF for 48 h before harvest and counting of viable cells. An increase pulmonary fibroblast cell number was prevented by 4NOM over the concentration range of 1 to 1000 nM.
A range of the disclosed compounds was subsequently examined using the above assay system, and the results are summarized in Column E of Table 4. […] The proliferation of parenchymal fibroblasts is important in the development of pulmonary fibrosis.

[3] = tested on: GM-CSF production by Human Airway Smooth Muscle Cells; test: Interleukin-1α-mediated GM-CSF production by HASM cells (ELISA); assay type: cell-based; conditions: inhibition of interleukin-1α (1 ng/ml)-mediated GM-CSF production; concentration not given; * not defined

SMILES | IC50 [1] | HASM- Thr pIC25 [1] | HASM- Thr pIC75 [1] | IC50 (Estrogen Receptor (ER)) | IC50 [2] | pFib - bFGF (Pulmonary fibroblasts) | HASM - GM-CSF [3]
COc1cc2c(cc1O)/C(=N/OCc1cc(F)cc(F)c1)C[C@@H]1[C@@H]2CC[C@]2(C)/C(=N/O)CC[C@@H]12 [CP-DM-4-36, 6-(3,5-difluorobenzyloxy)imino-2-methoxyestrone-17-oxime] | 129 nM | 7.91 | 5.69 | 20000 nM | 10 µM | – | –
COc1cc2c(cc1O)/C(=N/OCc1cccc([N+](=O)[O-])c1)C[C@@H]1[C@@H]2CC[C@]2(C)/C(=N/O)CC[C@@H]12 [CP-DM-3-105, 2-methoxy-6-(3-nitrobenzyloxy)iminoestrone-17-oxime] | 100 nM | 8.85 | 5.59 | 25100 nM | 5.13 µM | – | –
COc1cc2c(cc1O)/C(=N/OCc1ccc(SC(F)(F)F)cc1)C[C@@H]1[C@@H]2CC[C@]2(C)/C(=N/O)CC[C@@H]12 [CP-DM-4-69, 2-methoxy-6-(4-trifluoromethylthiobenzyloxy)iminoestrone-17-oxime] | – | 4.00 | 4.00 | – | – | 87 ± 13* | –
COc1cc2c(cc1O)CC[C@@H]1[C@@H]2CC[C@]2(C)/C(=N/OCc3ccc([N+](=O)[O-])cc3)CC[C@@H]12 [CP-DM-3-103, 2-methoxyestrone-17-(4-nitrobenzyl)oxime] | 3160 nM | – | – | – | 40.7 µM | – | either did not inhibit or produced less inhibition
COc1ccc(CO/N=C2\C[C@@H]3[C@H](CC[C@]4(C)[C@@H](O)CC[C@@H]34)c3cc(OC)c(O)cc32)cc1 [CP-DM-4-5, 2-methoxy-6-(4-methoxybenzyloxy)-iminoestradiol] | 135 nM | 10.46 | 5.27 | 794 nM | 5.01 µM | – | –
COc1cc2c(cc1O)/C(=N/OCc1ccccc1[N+](=O)[O-])C[C@@H]1[C@@H]2CC[C@]2(C)/C(=N/O)CC[C@@H]12 [CP-DM-3-117, 2-methoxy-6-(2-nitrobenzyloxy)iminoestrone-17-oxime] | 6460 nM | – | – | – | 5.13 µM | – | –
COc1cc2c(cc1O)/C(=N/OCc1ccc(C(C)C)cc1)C[C@@H]1[C@@H]2CC[C@]2(C)/C(=N/O)CC[C@@H]12 [CP-DM-4-77, 2-methoxy-6-(4-isopropylbenzyloxy)iminoestrone-17-oxime] | 3020 nM | – | – | – | 3.16 µM | – | 26 ± 13
COc1cc2c(cc1O)/C(=N/OCc1ccc(C)cc1)C[C@@H]1[C@@H]2CC[C@]2(C)[C@@H](O)CC[C@@H]12 [CP-DM-4-78, 2-methoxy-6-(4-methylbenzyloxy)iminoestradiol] | 1000 nM | – | – | 229 nM | 10 µM | – | 35 ± 9*
COc1cc2c(cc1O)/C(=N/OCc1ccc(C#N)cc1)C[C@@H]1[C@@H]2CC[C@]2(C)/C(=N/O)CC[C@@H]12 [CP-DM-4-38, 6-(4-cyanobenzyloxy)imino-2-methoxyestrone-17-oxime] | – | 4.00 | 4.00 | – | – | 26 ± 26 | –
COc1cc2c(cc1O)/C(=N/OCc1cccc([N+](=O)[O-])c1)C[C@@H]1[C@@H]2CC[C@]2(C)[C@@H](O)CC[C@@H]12 [CP-DM-3-106, 2-methoxy-6-(3-nitrobenzyloxy)iminoestradiol] | 25.1 nM | 9.35 | 6.36 | 178 nM | 7.59 µM | – | –
COc1cc2c(cc1O)/C(=N/OCc1ccc(OC(F)(F)F)cc1)C[C@@H]1[C@@H]2CC[C@]2(C)/C(=N/O)CC[C@@H]12 [CP-DM-4-68, 2-methoxy-6-(4-trifluoromethoxybenzyloxy)iminoestrone-17-oxime] | 1820 nM | 7.91 | 5.00 | – | – | – | 8 ± 13
